From ChEMBL document CHEMBL1201862, “PubChem BioAssay data set” (2004)
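48-hour exposure; five concentrations; linearly interpolated endpoints. GI50 marks 50% less growth.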 The source made the active and inactive calls. Rule as the data show it: active = GI50 up to about 1.1 µM and inactive = higher.

Key:
Assay in all cases: NCI tumour cell line growth inhibition, 48 h
OVCAR-8 = test system: OVCAR-8
OVCAR-5 = test system: OVCAR-5
KM12 = test system: KM12
LOX IMVI = test system: LOX IMVI
RPMI-8226 = test system: RPMI-8226
RXF 393 = test system: RXF 393
HCT-116 = test system: HCT-116
OVCAR-3 = test system: OVCAR-3
EKVX = test system: EKVX
MOLT-4 = test system: MOLT-4
SF-295 = test system: SF-295
COLO 205 = test system: COLO 205
SK-MEL-5 = test system: SK-MEL-5
ACHN = test system: ACHN
SK-OV-3 = test system: SK-OV-3
SR = test system: SR
HCC 2998 = test system: HCC 2998

For `O=C1C2C(C(=O)N1O)N(Cc1ccccc1)C(=O)N2Cc1ccccc1` (configuration not stated), the GI50 (OVCAR-8) was > 100 µM (inactive), the GI50 (OVCAR-5) was > 100 µM (inactive) and the GI50 (KM12) was > 100 µM (inactive). For the same compound, the GI50 (LOX IMVI) was > 100 µM (inactive), the GI50 (RPMI-8226) was > 100 µM (inactive) and the GI50 (RXF 393) was > 100 µM (inactive). The GI50 (HCT-116) was > 100 µM (inactive), the GI50 (OVCAR-3) was > 100 µM (inactive) and the GI50 (EKVX) was > 100 µM (inactive). The GI50 (MOLT-4) was > 100 µM (inactive), the GI50 (SF-295) was > 100 µM (inactive) and the GI50 (COLO 205) was > 100 µM (inactive). The GI50 (SK-MEL-5) was > 100 µM (inactive), the GI50 (ACHN) was > 100 µM (inactive) and the GI50 (SK-OV-3) was > 100 µM (inactive). The GI50 (SR) was > 100 µM (inactive) and the GI50 (HCC 2998) was > 100 µM (inactive).
For `O=C(Cc1ccccc1)NN1C(=O)C(Cl)C1c1cc(Br)cc(Br)c1O` (configuration not stated), the GI50 (OVCAR-8) was 8.87 µM (inactive), the GI50 (OVCAR-5) was 16.1 µM (inactive) and the GI50 (KM12) was 40.1 µM (inactive). The GI50 (LOX IMVI) was 9.95 µM (inactive), the GI50 (RPMI-8226) was 6.81 µM (inactive) and the GI50 (RXF 393) was 17.7 µM (inactive). The GI50 (HCT-116) was 3.21 µM (inactive), the GI50 (OVCAR-3) was 2.71 µM (inactive) and the GI50 (EKVX) was 7.76 µM (inactive). For the same compound, the GI50 (MOLT-4) was 2.62 µM (inactive), the GI50 (SF-295) was 12.3 µM (inactive) and the GI50 (COLO 205) was 21.3 µM (inactive). For the same compound, the GI50 (SK-MEL-5) was 13.6 µM (inactive), the GI50 (ACHN) was 6.35 µM (inactive) and the GI50 (SK-OV-3) was 15.1 µM (inactive). For the same compound, the GI50 (SR) was 0.794 µM (active) and the GI50 (HCC 2998) was 13.8 µM (inactive).
For `CC(C)C(=O)Nc1nc2c(ncn2C2OC(CO)C(O)C2O)c(=O)[nH]1` (configuration not stated), the GI50 (OVCAR-8) was > 100 µM (inactive), the GI50 (OVCAR-5) was > 100 µM (inactive) and the GI50 (KM12) was > 100 µM (inactive). The GI50 (LOX IMVI) was > 100 µM (inactive), the GI50 (RPMI-8226) was > 100 µM (inactive) and the GI50 (RXF 393) was > 100 µM (inactive). The GI50 (HCT-116) was > 100 µM (inactive), the GI50 (OVCAR-3) was > 100 µM (inactive) and the GI50 (EKVX) was > 100 µM (inactive). For the same compound, the GI50 (MOLT-4) was > 100 µM (inactive), the GI50 (SF-295) was > 100 µM (inactive) and the GI50 (COLO 205) was > 100 µM (inactive). The GI50 (SK-MEL-5) was > 100 µM (inactive), the GI50 (ACHN) was > 100 µM (inactive) and the GI50 (SK-OV-3) was > 100 µM (inactive). The GI50 (SR) was > 100 µM (inactive) and the GI50 (HCC 2998) was > 100 µM (inactive).
With `C/C(=C\C(=O)Nc1ccc2[nH]nnc2c1)Nc1ccc2[nH]nnc2c1` the GI50 (OVCAR-8) was > 100 µM (inactive), the GI50 (OVCAR-5) was > 100 µM (inactive) and the GI50 (KM12) was > 100 µM (inactive). For the same compound, the GI50 (LOX IMVI) was > 100 µM (inactive), the GI50 (RPMI-8226) was > 100 µM (inactive) and the GI50 (RXF 393) was > 100 µM (inactive). The GI50 (HCT-116) was > 100 µM (inactive), the GI50 (OVCAR-3) was > 100 µM (inactive) and the GI50 (EKVX) was > 100 µM (inactive). For the same compound, the GI50 (MOLT-4) was > 100 µM (inactive), the GI50 (SF-295) was > 100 µM (inactive) and the GI50 (COLO 205) was > 100 µM (inactive). The GI50 (SK-MEL-5) was > 100 µM (inactive), the GI50 (ACHN) was > 100 µM (inactive) and the GI50 (SK-OV-3) was > 100 µM (inactive). The GI50 (SR) was > 100 µM (inactive) and the GI50 (HCC 2998) was > 100 µM (inactive).
In the case of `O=[N+]([O-])c1ccc(-n2nnc(C3=NCCCN3)c2-c2ccc(Cl)cc2)cc1`, the GI50 (OVCAR-8) is reported as > 100 µM (inactive), the GI50 (OVCAR-5) is reported as > 100 µM (inactive) and the GI50 (KM12) is reported as > 100 µM (inactive). For the same compound, the GI50 (LOX IMVI) was > 100 µM (inactive), the GI50 (RPMI-8226) was > 100 µM (inactive) and the GI50 (RXF 393) was 73.1 µM (inactive). The GI50 (HCT-116) was 89.1 µM (inactive), the GI50 (OVCAR-3) was > 100 µM (inactive) and the GI50 (EKVX) was > 100 µM (inactive). The GI50 (MOLT-4) was 79.3 µM (inactive), the GI50 (SF-295) was > 100 µM (inactive) and the GI50 (COLO 205) was 30.5 µM (inactive). For the same compound, the GI50 (SK-MEL-5) was 82.2 µM (inactive), the GI50 (ACHN) was > 100 µM (inactive) and the GI50 (SK-OV-3) was > 100 µM (inactive). The GI50 (SR) was 29 µM (inactive) and the GI50 (HCC 2998) was > 100 µM (inactive).
In the case of `CC(C)(O)[C@@H]1CCC(C)([C@H]2[C@@H](O)CC3(C)C4CC(OC5OC(CO)C(O)C(O)C5O)C5C(C)(C)[C@@H](OC6OCC(O)C(O)C6O)CC[C@@]56C[C@@]46CC[C@]23C)O1` (some centres not stated), the GI50 (OVCAR-8) is reported as > 100 µM (inactive), the GI50 (OVCAR-5) is reported as > 100 µM (inactive) and the GI50 (KM12) is reported as > 100 µM (inactive). The GI50 (LOX IMVI) was > 100 µM (inactive), the GI50 (RPMI-8226) was > 100 µM (inactive) and the GI50 (RXF 393) was > 100 µM (inactive). For the same compound, the GI50 (HCT-116) was > 100 µM (inactive), the GI50 (OVCAR-3) was > 100 µM (inactive) and the GI50 (EKVX) was > 100 µM (inactive). For the same compound, the GI50 (MOLT-4) was > 100 µM (inactive), the GI50 (SF-295) was > 100 µM (inactive) and the GI50 (COLO 205) was > 100 µM (inactive). The GI50 (SK-MEL-5) was > 100 µM (inactive), the GI50 (ACHN) was > 100 µM (inactive) and the GI50 (SK-OV-3) was > 100 µM (inactive). For the same compound, the GI50 (SR) was > 100 µM (inactive) and the GI50 (HCC 2998) was > 100 µM (inactive).
